Here are results for four compounds from patent US12595269B2, “Morpholine-like monoamine releasers” (Solvonis Therapeutics Ireland Holdings Limited, priority 2022, dated 2026).

SMILES strings stand for the structures. Bounds are passed on as bounds.

Data set [1] is described as follows: Plasma protein binding by equilibrium dialysis, rat plasma. It counts as in vitro ADME, Sprague Dawley (SD) rats. Conditions: male, Sprague Dawley, pH 7.4. The procedure:
Methods and Procedure: This study was performed in agreement with the previously described procedures to assure data integrity and adherence to GLP standards. Plasma protein binding and blood tissue binding of test items (0.5 μM) was determined using biological samples from male Sprague Dawley (SD) rats and humans. […] Dexamethasone was used as a control for lung tissue binding. Various biological samples were spiked with test compounds according to the methods that follow.
Preparation of plasma or blood samples: An appropriate amount of test compound was dissolved in DMSO to yield a 10 mM solution. Further dilutions, to obtain 50 μM working solutions (WS), were then prepared using 50% acetonitrile in Milli-Q water. These 100×WS were used to spike plasma or blood to obtain a final concentration of 0.5 μM. From this initial spiking solution, control samples (n=3), referred to as T=0, were immediately extracted and used to calculate the recovery of the test item.
An equilibrium dialysis method was performed to determine protein binding in the various biological samples described herein. Materials were prepared and methods were in accordance with the following procedures. […]
Dialysis buffer was prepared by dissolving Na2HPO4 8.69 g, KH2PO4 1.90 g, and NaCl 4.11 g in 1 L of MilliQ water, and adjusting the pH to 7.4 with H3PO4. […] In order to control the integrity of the membrane after the dialysis process, the presence of protein was assessed in the buffer compartment. […]
Samples were analyzed in a LC-MS/MS system using an analytical method to monitor the compound to internal standard peak area ratios as representative of the compound concentrations. Alternatively, samples were analyzed by RapidFire.
Protein binding in plasma, blood, brain, and lung tissue samples were determined with the following formula: Afu=Buffer/x, wherein “x” may be plasma, blood, brain, or lung, and “Afu” is the apparent fraction unbound, and the other variables refer to the analyte/internal standard ratio determined in their specific compartment (buffer, plasma, blood, brain homogenate, and lung homogenate); […]
On the technique in general: Equilibrium dialysis compares concentrations on both sides of a semipermeable membrane.

The next data set concerns the target T1, human DAT (Homo sapiens, UniProt Q01959).
T1 construct: expressed in transfected cells; host or cells: CHO
Briefly: DAT uptake scintillation proximity assay, inhibition of [3H]-dopamine uptake in hDAT-CHO cells. It counts as cell-based. Conditions: read-out: DAT update pIC50 (converted). The procedure: (§1) Overview: Eighty-eight compounds were tested in SERT (serotonin transporter) and DAT (dopamine transporter) uptake assays (completed as scintillation proximity assays, or SPAs, in a recombinant CHO cell line). Fifty-two compounds were tested in release assays for 5-HT and DA release in rat synaptosomes.
Methods and Procedure-Uptake: The potency of the compounds described herein for inhibiting DAT function was measured using an uptake assay in a recombinant CHO cell line stably expressing human DAT (hDAT-CHO). Potency was measured in terms of pIC50 by testing for inhibition of [^3H]-dopamine uptake in hDAT-CHO cells in a 384-well format scintillation proximity assay (SPA).
Briefly, on experiment days, hDAT-CHO cells were detached using Versene and added at a density of approximately 300,000 cells/mL to the SPA Mixture, which contains the following components in Assay Buffer (20 mM HEPES, 145 mM NaCl, 5 mM KCl, 2 mM CaCl2, 1 mM MgCl2, 5.5 mM glucose, 0.01% Pluronic F127, pH 7.3): 0.75 mg/mL SPA Imaging beads (RPNQ0001, PerkinElmer), 10 μM pargyline and 80 nM of [^3H]-dopamine (NET673, PerkinEImer). The SPA Mixture was added 20 μL/well to 384 well plates containing 0.1 μL/well of test compound in neat DMSO (11 points of 1:5 serial dilution, 0.5% DMSO final) or 0.1 μL of DMSO (total uptake) or 0.1 μL of the standard inhibitor indatraline (at 1 μM final concentration, as nonspecific uptake). Plates were sealed with a Top-seal A and read using a Microbeta counter (PerkinEImer) after 45 minutes of incubation at room temperature.
(§2) For both tests, the raw experimental data (cpm) were elaborated for the determination of pIC50/IC50 values as % inhibition of specific uptake. Concentration-response curves of MDMA, MDDMA, citalopram and GBR-12909 were used as internal standards in all experiments, and the signal window was monitored in each plate performing Z′ calculations, as described in Zhang et al., J. Biomol. Screen., 1999; 4: 67-73.
For orientation: In a scintillation proximity assay essentially only radioactivity close to the scintillant gives light.

In data set [2] the target is T2, SERT (serotonin transporter) (Homo sapiens, UniProt P31645).
T2 construct: expressed in transfected cells; host or cells: CHO
Briefly: SERT uptake scintillation proximity assay, inhibition of [3H]-serotonin uptake in hSERT-CHO cells. In kind it is cell-based. To be noted: read-out: SERT uptake pIC50 (converted). On the procedure: as §1
In addition, hSERT-CHO cells were detached using Versene and added at a density of 150,000 cells/mL to the SPA Mixture, which contains the following components in the Assay Buffer described above: 0.5 mg/mL SPA Imaging beads (RPNQ0001, PerkinElmer), 10 μM pargyline and 35 nM of [^3H]-serotonin (NET498, PerkinElmer). The SPA Mixture was added 20 μL/well to 384 well plates containing 0.1 μL/well of test compound in neat DMSO (11 points of 1:5 serial dilution, 0.5% DMSO final), 0.1 μL of DMSO (total uptake), or 0.1 μL of the standard inhibitor indatraline (1 μM, nonspecific uptake). Plates were sealed with a Top-seal A and read using a Microbeta counter (PerkinElmer) after 120 minutes of incubation at room temperature.
as §2

T1 sequence (Q01959 whole entry): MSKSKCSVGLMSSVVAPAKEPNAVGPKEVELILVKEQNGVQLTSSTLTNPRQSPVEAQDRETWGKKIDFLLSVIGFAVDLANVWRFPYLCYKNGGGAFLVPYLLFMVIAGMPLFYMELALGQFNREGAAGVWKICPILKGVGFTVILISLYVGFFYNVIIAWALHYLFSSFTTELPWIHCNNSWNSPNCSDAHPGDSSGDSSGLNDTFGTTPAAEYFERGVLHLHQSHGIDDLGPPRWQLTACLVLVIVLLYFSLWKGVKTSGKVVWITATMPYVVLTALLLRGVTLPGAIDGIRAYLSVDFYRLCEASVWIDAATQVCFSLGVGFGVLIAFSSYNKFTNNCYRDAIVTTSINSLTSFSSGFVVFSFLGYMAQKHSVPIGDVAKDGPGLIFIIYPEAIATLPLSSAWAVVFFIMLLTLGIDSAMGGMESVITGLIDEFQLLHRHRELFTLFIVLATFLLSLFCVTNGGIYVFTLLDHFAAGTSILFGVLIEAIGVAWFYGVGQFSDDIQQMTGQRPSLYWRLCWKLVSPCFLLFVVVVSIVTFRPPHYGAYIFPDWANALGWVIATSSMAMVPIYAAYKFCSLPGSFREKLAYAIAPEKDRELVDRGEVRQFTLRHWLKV
T2 sequence (P31645 whole entry): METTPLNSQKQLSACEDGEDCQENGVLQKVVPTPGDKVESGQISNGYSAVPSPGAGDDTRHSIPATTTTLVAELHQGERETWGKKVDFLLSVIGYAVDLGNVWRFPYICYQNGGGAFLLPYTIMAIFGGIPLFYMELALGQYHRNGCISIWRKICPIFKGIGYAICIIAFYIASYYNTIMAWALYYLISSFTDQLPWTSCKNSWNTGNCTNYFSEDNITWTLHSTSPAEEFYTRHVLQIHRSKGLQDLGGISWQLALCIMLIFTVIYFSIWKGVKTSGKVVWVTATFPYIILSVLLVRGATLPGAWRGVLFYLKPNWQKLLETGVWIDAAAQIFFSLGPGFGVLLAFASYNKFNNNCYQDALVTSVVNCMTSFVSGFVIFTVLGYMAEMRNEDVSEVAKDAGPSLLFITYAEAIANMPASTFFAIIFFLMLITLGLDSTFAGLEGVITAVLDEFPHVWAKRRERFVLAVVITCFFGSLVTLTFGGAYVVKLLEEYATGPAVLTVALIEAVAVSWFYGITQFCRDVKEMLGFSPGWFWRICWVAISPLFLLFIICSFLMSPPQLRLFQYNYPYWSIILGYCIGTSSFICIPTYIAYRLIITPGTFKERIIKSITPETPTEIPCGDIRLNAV

Turning to `CNC(C)Cc1ccc2c(c1)OCO2` (stereo not drawn) [MDMA, reference compound], in data set [1], the fraction unbound (in general, the share of the substance not bound to proteins or other matrix) at 5 h, 0.5 µM is greater than 0.5.
On to `Clc1ccc([C@]23CN[C@H](CO2)C3)cc1Cl` (single isomer, unassigned) [516A], for which the figures for the IC50 (at human DAT; in data set [2]) were 72.4 nM and 46.8 nM, respectively.
`Clc1ccc([C@@]23CN[C@@H](CO2)C3)cc1Cl` (single isomer, unassigned) [518A] registered a fraction unbound at 5 h, 0.5 µM in data set [1] of 0.106. Besides, the results for the IC50 (on human DAT; in data set [2]) were 89.1 nM and 81.3 nM, respectively.
Taken in the same sequence, the figures for `Clc1ccc(C23CNC(CO2)C3)cc1Cl` (stereo not drawn) [522A, 1-(3,4-dichlorophenyl)-2-oxa-5-azabicyclo[2.2.1]heptane] were 0.12, 63.1 nM and 56.2 nM.
